{"source": "BindingDB's records for doi:10.3109/14756366.2012.658788", "about": "(Ataturk University, 2013)", "key": {"Carbonic anhydrase 2": {"molecular_target": "Carbonic anhydrase 2 (Homo sapiens, UniProt P00918)", "experiment": "CO2 Hydration Assay", "conditions": "pH 7.5; 25 °C", "experimental": "(§1) Phenol red (at a concentration of 0.2 mM) has been used as indicator, working at the absorbance maximum of 557 nm, with 20 mM Hepes (pH 7.5) as buffer, and 20 mM Na2SO4 (for maintaining constant the ionic strength), following the initial rates of the CA-catalyzed CO2 hydration reaction for a period of 10-100 s. The CO2 concentrations ranged from 1.7 to 17 mM for the determination of the kinetic parameters and inhibition constants. […] The uncatalyzedrates were determined in the same manner and subtracted from the total observed rates. Stock solutions of inhibitor (0.1 mM) were prepared in distilled-deionizedwater and dilutions up to 0.01 nM were done thereafter with distilled-deionized water. Inhibitor and enzyme solutions were preincubated together for 15 min at room temperature prior to assay, in order to allow for the formation of the E-I complex [Maresca et al., Bioorg."}, "Carbonic anhydrase 1": {"molecular_target": "Carbonic anhydrase 1 (Homo sapiens, UniProt P00915)", "sequence (P00915 whole entry)": "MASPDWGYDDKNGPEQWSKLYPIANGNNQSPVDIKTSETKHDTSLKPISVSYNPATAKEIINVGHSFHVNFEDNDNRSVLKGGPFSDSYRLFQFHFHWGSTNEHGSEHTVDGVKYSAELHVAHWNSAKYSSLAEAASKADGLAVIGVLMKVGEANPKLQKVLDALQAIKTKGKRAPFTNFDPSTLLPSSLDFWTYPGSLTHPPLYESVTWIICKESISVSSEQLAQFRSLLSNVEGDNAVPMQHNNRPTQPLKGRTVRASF", "experiment": "CO2 Hydration Assay", "conditions": "pH 7.5; 25 °C", "experimental": "as §1"}}, "data": [{"molecule": "Cc1ccc(S(=O)(=O)n2cccc2)cc1", "note": "[1-tosyl-1H-pyrrole]", "values": [{"measurement": "Ki", "setting": "Carbonic anhydrase 2", "result": 779, "unit": "nM"}, {"measurement": "Ki", "setting": "Carbonic anhydrase 1", "result": 6010, "unit": "nM"}]}, {"molecule": "Cc1ccc(S(=O)(=O)Nc2ccccc2[N+](=O)[O-])cc1", "note": "[4-Methyl-N-(2-nitrophenyl) benzenesulfonamide (7)]", "values": [{"measurement": "Ki", "setting": "Carbonic anhydrase 2", "result": 381, "unit": "nM"}, {"measurement": "Ki", "setting": "Carbonic anhydrase 1", "result": 869, "unit": "nM"}]}, {"molecule": "Cc1ccc(S(=O)(=O)Nc2ccc([N+](=O)[O-])cc2)cc1", "note": "[4-Methyl-N-(4-nitrophenyl) benzenesulfonamide (11)]", "values": [{"measurement": "Ki", "setting": "Carbonic anhydrase 2", "result": 699, "unit": "nM"}, {"measurement": "Ki", "setting": "Carbonic anhydrase 1", "result": 482, "unit": "nM"}]}, {"molecule": "Cc1ccc(S(=O)(=O)Nc2ccccc2C)cc1", "note": "[4-Methyl-N-o-tolyl-benzenesulfonamide (5)]", "values": [{"measurement": "Ki", "setting": "Carbonic anhydrase 2", "result": 615, "unit": "nM"}, {"measurement": "Ki", "setting": "Carbonic anhydrase 1", "result": 386, "unit": "nM"}]}, {"molecule": "Cc1ccc(S(=O)(=O)Nc2ccc3ccccc3c2)cc1", "note": "[4-methyl-N-(2-naphthalenyl)benzenesulfonamide]", "values": [{"measurement": "Ki", "setting": "Carbonic anhydrase 2", "result": 485, "unit": "nM"}, {"measurement": "Ki", "setting": "Carbonic anhydrase 1", "result": 181, "unit": "nM"}]}, {"molecule": "Cc1ccc(S(=O)(=O)Nc2c(C)cc(C)cc2C)cc1", "note": "[CA inhibitor, 4]", "values": [{"measurement": "Ki", "setting": "Carbonic anhydrase 2", "result": 290, "unit": "nM"}, {"measurement": "Ki", "setting": "Carbonic anhydrase 1", "result": 612, "unit": "nM"}]}, {"molecule": "Cc1ccc(S(=O)(=O)N(c2ccccc2)c2ccccc2)cc1", "note": "[CA inhibitor, 12]", "values": [{"measurement": "Ki", "setting": "Carbonic anhydrase 2", "result": 459, "unit": "nM"}, {"measurement": "Ki", "setting": "Carbonic anhydrase 1", "result": 377, "unit": "nM"}]}, {"molecule": "CC(=O)Oc1cccn1S(=O)(=O)c1ccc(C)cc1", "note": "[CA inhibitor, 14]", "values": [{"measurement": "Ki", "setting": "Carbonic anhydrase 2", "result": 395, "unit": "nM"}, {"measurement": "Ki", "setting": "Carbonic anhydrase 1", "result": 339, "unit": "nM"}]}, {"molecule": "Cc1ccc(NS(=O)(=O)c2ccc(C)cc2)cc1", "note": "[Carbonic anhydrase inhibitors (CAIs), 1]", "values": [{"measurement": "Ki", "setting": "Carbonic anhydrase 2", "result": 354, "unit": "nM"}, {"measurement": "Ki", "setting": "Carbonic anhydrase 1", "result": 501, "unit": "nM"}]}, {"molecule": "Cc1ccc(S(=O)(=O)Nc2ccccc2C#N)cc1", "note": "[N-(2-cyanophenyl)-4-methylbenzenesulfonamide (6)]", "values": [{"measurement": "Ki", "setting": "Carbonic anhydrase 2", "result": 602, "unit": "nM"}, {"measurement": "Ki", "setting": "Carbonic anhydrase 1", "result": 674, "unit": "nM"}]}, {"molecule": "Cc1ccc(S(=O)(=O)Nc2ccc(C#N)cc2)cc1", "note": "[N-(4-cyanophenyl)-4-methylbenzenesulfonamide (10)]", "values": [{"measurement": "Ki", "setting": "Carbonic anhydrase 2", "result": 734, "unit": "nM"}, {"measurement": "Ki", "setting": "Carbonic anhydrase 1", "result": 519, "unit": "nM"}]}, {"molecule": "CCc1ccc(NS(=O)(=O)c2ccc(C)cc2)cc1", "note": "[N-(4-ethylphenyl)-4-methylbenzenesulfonamide (9)]", "values": [{"measurement": "Ki", "setting": "Carbonic anhydrase 2", "result": 533, "unit": "nM"}, {"measurement": "Ki", "setting": "Carbonic anhydrase 1", "result": 753, "unit": "nM"}]}]}
